Patent US20170327549A1, “Adenylation Enzyme Inhibitors” (Stichting Het Nederlands Kanker Instituut - antoni van …, priority 2014, published 2017)

Target: T1, Uba1 (Homo sapiens, UniProt P22314)
T1 sequence (P22314 1-1058): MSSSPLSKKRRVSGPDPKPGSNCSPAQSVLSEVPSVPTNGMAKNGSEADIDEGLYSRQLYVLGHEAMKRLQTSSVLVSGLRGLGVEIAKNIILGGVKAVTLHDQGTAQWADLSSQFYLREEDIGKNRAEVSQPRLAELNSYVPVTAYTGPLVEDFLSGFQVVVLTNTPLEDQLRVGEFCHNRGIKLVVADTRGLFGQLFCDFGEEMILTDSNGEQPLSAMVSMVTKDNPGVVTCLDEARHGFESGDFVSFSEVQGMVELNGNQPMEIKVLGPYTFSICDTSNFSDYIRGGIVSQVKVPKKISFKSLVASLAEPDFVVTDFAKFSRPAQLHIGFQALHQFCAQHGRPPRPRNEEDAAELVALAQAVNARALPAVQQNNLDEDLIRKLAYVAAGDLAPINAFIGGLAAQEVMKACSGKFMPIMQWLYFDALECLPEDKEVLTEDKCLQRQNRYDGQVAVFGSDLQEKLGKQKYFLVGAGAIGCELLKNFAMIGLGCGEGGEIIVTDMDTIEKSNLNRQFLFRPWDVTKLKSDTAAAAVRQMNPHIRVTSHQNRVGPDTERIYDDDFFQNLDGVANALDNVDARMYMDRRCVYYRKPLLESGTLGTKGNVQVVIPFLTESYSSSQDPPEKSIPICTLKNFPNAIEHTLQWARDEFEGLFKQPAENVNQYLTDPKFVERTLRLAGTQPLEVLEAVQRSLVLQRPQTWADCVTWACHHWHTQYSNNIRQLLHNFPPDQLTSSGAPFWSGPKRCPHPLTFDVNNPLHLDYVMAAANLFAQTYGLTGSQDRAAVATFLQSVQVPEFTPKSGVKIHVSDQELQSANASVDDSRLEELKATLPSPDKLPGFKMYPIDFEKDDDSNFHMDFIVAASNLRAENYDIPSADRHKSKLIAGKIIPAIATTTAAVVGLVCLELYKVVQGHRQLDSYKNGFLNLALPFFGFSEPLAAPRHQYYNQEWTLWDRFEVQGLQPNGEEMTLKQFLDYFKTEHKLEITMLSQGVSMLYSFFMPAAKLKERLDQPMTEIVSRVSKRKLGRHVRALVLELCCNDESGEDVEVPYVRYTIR
Assay: Peptide inhibitors of Ub-E1 thioester formation
Format: biochemical
Method: Peptides VYRFYGG and VYRFYGΔAla of varying concentrations (10, 50, 100, 200, 500, 700, 1000 μM) were incubated with 0.3 μM Uba1 in the presence of 1 mM ATP and 10 mM MgCl2 in TBS buffer (50 mM Tris, 150 mM NaCl, pH=7.5) for 15 min at room temperature. TAMRA-Ub (1 μM) was added to the reaction and samples were taken at two time points, respectively 15 sec and 15 min. The proteins were separated by SDS-PAGE and the TAMRA-Ub-E1 conjugates were visualized using a fluorescence scanner (λex=530 nm; λem=580 nm).

[1] = initial velocities measured at 15 seconds
[2] = reactions allowed to proceed for 15 min

inhibition of (TAMRA-Ub)-E1 formation [1] | inhibition of (TAMRA-Ub)-E1 formation [2] | Substance | inhibitory potency against Uba1 activity relative to VYRFYGG (after 15 min incubation, quantified from gel scanning)
inhibitory effect | no detectable inhibition of E1 activity | VYRFYGG [reference compound] | –
inhibitory effect | prolonged inhibition of the E1 | VYRFYG-ΔAla | higher inhibitory potency against Uba1 activity
